# According to PubChem BioAssay (NCI):
#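 Step 1: Grow cells in 96-well plates. Step 2: Expose to compound for 48 hours at 5 concentrations. Step 3: Interpolate endpoints linearly; if unreached, use highest concentration. At the GI50, growth is halved. TGI marks complete inhibition of growth.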
# Legend:
# Assay in all cases: growth of human tumour cells (NCI), 48 h
# OVCAR-5 ovarian = tested on: OVCAR-5 ovarian
# NCI-H460 lung = tested on: NCI-H460 lung
# MDA-MB-468 breast = tested on: MDA-MB-468 breast
# ACHN renal = tested on: ACHN renal
# HOP-62 NSCLC = tested on: HOP-62 NSCLC
# UACC-62 melanoma = tested on: UACC-62 melanoma
# HL-60(TB) leukemia = tested on: HL-60(TB) leukemia
# NCI/ADR-RES ovarian = tested on: NCI/ADR-RES ovarian
# RXF 393 renal = tested on: RXF 393 renal
# SN12C renal = tested on: SN12C renal
# SF-295 CNS = tested on: SF-295 CNS
# HCT-15 colon = tested on: HCT-15 colon
# A498 renal = tested on: A498 renal
# M14 melanoma = tested on: M14 melanoma
# HOP-92 NSCLC = tested on: HOP-92 NSCLC
# SNB-19 CNS = tested on: SNB-19 CNS
# SK-MEL-28 melanoma = tested on: SK-MEL-28 melanoma
# NCI-H23 lung = tested on: NCI-H23 lung
# MCF7 breast = tested on: MCF7 breast
# CCRF-CEM leukemia = tested on: CCRF-CEM leukemia
# UACC-257 melanoma = tested on: UACC-257 melanoma
# OVCAR-8 ovarian = tested on: OVCAR-8 ovarian
# NCI-H522 lung = tested on: NCI-H522 lung
# COLO 205 colon = tested on: COLO 205 colon
# HCT-116 colon = tested on: HCT-116 colon
# HCC-2998 colon = tested on: HCC-2998 colon
# IGROV1 ovarian = tested on: IGROV1 ovarian
# K-562 leukemia = tested on: K-562 leukemia
# SK-MEL-5 melanoma = tested on: SK-MEL-5 melanoma
# LOX IMVI melanoma = tested on: LOX IMVI melanoma
# OVCAR-4 ovarian = tested on: OVCAR-4 ovarian
# HS 578T breast = tested on: HS 578T breast
# PC-3 prostate = tested on: PC-3 prostate
# SR leukemia = tested on: SR leukemia
# T-47D breast = tested on: T-47D breast
# KM12 colon = tested on: KM12 colon
# SF-539 CNS = tested on: SF-539 CNS
# EKVX NSCLC = tested on: EKVX NSCLC
# SNB-75 CNS = tested on: SNB-75 CNS
# DU-145 prostate = tested on: DU-145 prostate
# A549 NSCLC = tested on: A549 NSCLC
# UO-31 renal = tested on: UO-31 renal
# BT-549 breast = tested on: BT-549 breast
# CAKI-1 renal = tested on: CAKI-1 renal
# NCI-H226 lung = tested on: NCI-H226 lung
# 786-0 renal = tested on: 786-0 renal
# SW-620 colon = tested on: SW-620 colon
# HT29 colon = tested on: HT29 colon
# MOLT-4 leukemia = tested on: MOLT-4 leukemia
# MALME-3M melanoma = tested on: MALME-3M melanoma
# SK-OV-3 ovarian = tested on: SK-OV-3 ovarian
# OVCAR-3 ovarian = tested on: OVCAR-3 ovarian
# MDA-MB-231 breast = tested on: MDA-MB-231 breast
# RPMI-8226 leukemia = tested on: RPMI-8226 leukemia
# TK-10 renal = tested on: TK-10 renal
# SF-268 CNS = tested on: SF-268 CNS
# U251 CNS = tested on: U251 CNS
# MDA-MB-435 = tested on: MDA-MB-435
# SK-MEL-2 melanoma = tested on: SK-MEL-2 melanoma
structure (smiles),measurement,setting,value
CCN1C(=O)N(CC)C2NNC(Sc3c(C(=O)O)c4ccccc4n(CCC(C)C)c3=O)=NC21 (stereo not drawn),GI50,OVCAR-5 ovarian,3.06 µM
same,TGI,OVCAR-5 ovarian,17.5 µM
same,GI50,NCI-H460 lung,3.43 µM
same,TGI,NCI-H460 lung,13.3 µM
same,GI50,MDA-MB-468 breast,386 nM
same,TGI,MDA-MB-468 breast,3.33 µM
same,GI50,ACHN renal,5.75 µM
same,TGI,ACHN renal,19.4 µM
same,GI50,HOP-62 NSCLC,6.68 µM
same,TGI,HOP-62 NSCLC,43 µM
same,GI50,UACC-62 melanoma,4.11 µM
same,TGI,UACC-62 melanoma,19.8 µM
same,GI50,HL-60(TB) leukemia,3.12 µM
same,TGI,HL-60(TB) leukemia,34.1 µM
same,GI50,NCI/ADR-RES ovarian,2250 nM
same,TGI,NCI/ADR-RES ovarian,5.8 µM
same,GI50,RXF 393 renal,2160 nM
same,TGI,RXF 393 renal,9.31 µM
same,GI50,SN12C renal,4.09 µM
same,TGI,SN12C renal,18.2 µM
same,GI50,SF-295 CNS,3.3 µM
same,TGI,SF-295 CNS,13.2 µM
same,GI50,HCT-15 colon,2750 nM
same,TGI,HCT-15 colon,13.7 µM
same,GI50,A498 renal,19.6 µM
same,TGI,A498 renal,54.3 µM
same,GI50,M14 melanoma,8.47 µM
same,TGI,M14 melanoma,> 100 µM
same,GI50,HOP-92 NSCLC,16.5 µM
same,TGI,HOP-92 NSCLC,47.4 µM
same,GI50,SNB-19 CNS,4.56 µM
same,TGI,SNB-19 CNS,25.1 µM
same,GI50,SK-MEL-28 melanoma,9.69 µM
same,TGI,SK-MEL-28 melanoma,31.4 µM
same,GI50,NCI-H23 lung,4.34 µM
same,TGI,NCI-H23 lung,16.6 µM
same,GI50,MCF7 breast,878 nM
same,TGI,MCF7 breast,15.1 µM
same,GI50,CCRF-CEM leukemia,4.62 µM
same,TGI,CCRF-CEM leukemia,> 100 µM
same,GI50,UACC-257 melanoma,19.6 µM
same,TGI,UACC-257 melanoma,71.5 µM
same,GI50,OVCAR-8 ovarian,5.54 µM
same,TGI,OVCAR-8 ovarian,51.7 µM
same,GI50,NCI-H522 lung,2520 nM
same,TGI,NCI-H522 lung,8.42 µM
same,GI50,COLO 205 colon,3.65 µM
same,TGI,COLO 205 colon,11.6 µM
same,GI50,HCT-116 colon,4.12 µM
same,TGI,HCT-116 colon,> 100 µM
same,GI50,HCC-2998 colon,2410 nM
same,TGI,HCC-2998 colon,7.91 µM
same,GI50,IGROV1 ovarian,3.06 µM
same,TGI,IGROV1 ovarian,18.1 µM
same,GI50,K-562 leukemia,3.69 µM
same,TGI,K-562 leukemia,> 100 µM
same,GI50,SK-MEL-5 melanoma,4.37 µM
same,TGI,SK-MEL-5 melanoma,16.4 µM
same,GI50,LOX IMVI melanoma,5.11 µM
same,TGI,LOX IMVI melanoma,18.5 µM
same,GI50,OVCAR-4 ovarian,17.9 µM
same,TGI,OVCAR-4 ovarian,> 100 µM
same,GI50,HS 578T breast,3.37 µM
same,TGI,HS 578T breast,31 µM
same,GI50,PC-3 prostate,6.19 µM
same,TGI,PC-3 prostate,> 100 µM
same,GI50,SR leukemia,22 µM
same,TGI,SR leukemia,> 100 µM
same,GI50,T-47D breast,20.5 µM
same,TGI,T-47D breast,> 100 µM
same,GI50,KM12 colon,4.12 µM
same,TGI,KM12 colon,53.5 µM
same,GI50,SF-539 CNS,2110 nM
same,TGI,SF-539 CNS,5.63 µM
same,GI50,EKVX NSCLC,3.5 µM
same,TGI,EKVX NSCLC,17.7 µM
same,GI50,SNB-75 CNS,2240 nM
same,TGI,SNB-75 CNS,9.19 µM
same,GI50,DU-145 prostate,5.64 µM
same,TGI,DU-145 prostate,65.7 µM
same,GI50,A549 NSCLC,6.07 µM
same,TGI,A549 NSCLC,24.2 µM
same,GI50,UO-31 renal,4.07 µM
same,TGI,UO-31 renal,22.5 µM
same,GI50,BT-549 breast,35.8 µM
same,TGI,BT-549 breast,91.4 µM
same,GI50,CAKI-1 renal,5.21 µM
same,TGI,CAKI-1 renal,19.8 µM
same,GI50,NCI-H226 lung,3.87 µM
same,TGI,NCI-H226 lung,21 µM
same,GI50,786-0 renal,14.5 µM
same,TGI,786-0 renal,62.8 µM
same,GI50,SW-620 colon,6.5 µM
same,TGI,SW-620 colon,31 µM
same,GI50,HT29 colon,3.33 µM
same,TGI,HT29 colon,13.3 µM
same,GI50,MOLT-4 leukemia,4.79 µM
same,TGI,MOLT-4 leukemia,> 100 µM
same,GI50,MALME-3M melanoma,11.2 µM
same,TGI,MALME-3M melanoma,28.3 µM
same,GI50,SK-OV-3 ovarian,7.58 µM
same,TGI,SK-OV-3 ovarian,69.1 µM
same,GI50,OVCAR-3 ovarian,5 µM
same,TGI,OVCAR-3 ovarian,21.3 µM
same,GI50,MDA-MB-231 breast,3.69 µM
same,TGI,MDA-MB-231 breast,15.7 µM
same,GI50,RPMI-8226 leukemia,4.61 µM
same,TGI,RPMI-8226 leukemia,> 100 µM
same,GI50,TK-10 renal,17.5 µM
same,TGI,TK-10 renal,63.8 µM
same,GI50,SF-268 CNS,10.4 µM
same,TGI,SF-268 CNS,> 100 µM
same,GI50,U251 CNS,4.33 µM
same,TGI,U251 CNS,36.9 µM
same,GI50,MDA-MB-435,2130 nM
same,TGI,MDA-MB-435,5.5 µM
same,GI50,SK-MEL-2 melanoma,9.35 µM
same,TGI,SK-MEL-2 melanoma,31.2 µM
